Measurements taken from patent US12168650B2, “Crystalline forms of 3-(5-(2-hydroxy-2-methylpropoxy)-6-methylpyrazin-2-yl)-1H-indole-7-carbonitrile” (NIDO BIOSCIENCES, INC., priority 2022, dated 2024).
≈ marks a conversion by molar mass, not a printed value. Where two headings read alike, the source gives them in different places.

Columns and labels:
[1] = Competitive equilibration experiments of anhydrates; details: at both 25° C. and 50° C.
Protocol: Relative stability of the anhydrate Forms A, C, H and J was investigated with competitive equilibration experiments.
Relative stability of the anhydrates Forms C, K and L was investigated with competitive equilibration experiments.
To determine relative stability of anhydrates, competitive equilibration experiments were conducted in different solvent systems.
About 2 mg of each anhydrate was added to 0.3-0.4 mL saturated solutions of selected solvents. Obtained suspensions were stirred at 25° C. for 3-10 days, respectively. Solid parts (wet cakes) were isolated by centrifugation filtration and investigated by XRPD.

[2] = Solubility in solvents and mixture solvents; format: physicochemical
Source text: As there may be potential Form A/H (Anhydrate) or Form I (THF solvate) in water or THF system according to the polymorph screening report, the use of water and THF were avoided in following study. […]

[3] = Interconversion of polymorphs (heating, dehydration, humidity, equilibration); format: physicochemical
Source text: In total, 15 forms were identified to be polymorphs or pseudo-polymorphs of the free form, including seven anhydrates, Forms A, C, H, J, K. L and O; four hydrates, Forms B, F, M and N; and three solvates, Forms D, E and I. In addition, a metastable form, Form G, and an amorphous form were also obtained.
The interconversion relation of polymorphs identified is outlined in FIG. 5.

[4] = Hygroscopicity by dynamic vapor sorption (DVS); format: physicochemical
Protocol: Dynamic vapor sorption (DVS) was performed on an Intrinsic, Advantage or Adventure with an oven temperature of 25° C. using water as a solvent. The sample mass was about 5-10 mg using the following method: • Cycle: 40-0-95-0-40% RH • Stage Step: 10% • Equilibrium: 0.002 dm/dt (%/min) • Minimum dm/dt stability duration: 60 min • Maximum dm/dt stage time: 360 min. Analysis of Polymorphs
Hygroscopicity of Form C was evaluated by dynamic vapor sorption (DVS) test at 25° C. Form C is non-hygroscopic below 90% relative humidity (RH). Form C absorbs about 0.2% water in 95% RH at 25° C.

[5] = Bulk stability of Form C over 1 week; format: physicochemical; details: for Bulk (XRPD) / Color / Purity, Bulk (HPLC): Solid state
Protocol: Bulk stability of Form C was evaluated at 25° C./92% RH in an open container, at 40° C./75% RH in an open container and at 60° C. in a tight container over 1 week.

[6] = Solubility in aqueous media at 37° C.; format: physicochemical; details: for XRPD of residual solids: 24 h; for solubility at 2 h / solubility at 24 h: thermodynamic from solid
Protocol: The anhydrate Form C (equivalent to 8 mg of free form) was weighed into a 20 mL glass vial. 4 mL of solubility medium was added. Obtained suspensions were stirred at 37° C. at 400 rpm. Some of the suspensions were taken out at 2 hours and 24 hours, respectively. Then they were centrifuged at 3700 at 14,000 rpm for 5 (m. Supernatants were analyzed by HPLC and pH meter for solubility and pH, respectively. Residual solids (wet cakes) were characterized by XRPD to determine physical form.

[7] = 25° C./92% RH, open container, 1 week
[8] = 40° C./75% RH, open container, 1 week
[9] = 60° C., tight container, 1 week
[10] = pH 7.0 phosphate buffer (50 mM)
[11] = aqueous buffer, pH 3.0 citrate buffer (50 mM)
[12] = aqueous buffer, pH 5.0 acetate buffer (50 mM)
[13] = aqueous buffer, pH 7.0 phosphate buffer (50 mM)
[14] = simulated gastric fluid, pH 1.0 HCl solution (0.1N)

With `Cc1nc(-c2c[nH]c3c(C#N)cccc23)cnc1OCC(C)(C)O` [Form C, 3-(5-(2-hydroxy-2-methylpropoxy)-6-methylpyrazin-2-yl)-1H-indole-7-carbonitrile] the “Relative thermodynamic stability of anhydrates” value [1] was “thermodynamically stable anhydrate”, the XRPD ([2]; 2-ME-THF/n-hep mixtures, 50 ° C. (printed at 4/0.5, probably merged for all rows)) was “Form C” and the Solubility ([2]; 2-MeTHF, 25° C.) was 117 mg/mL solvent. It also gave a Solubility ([2]; 2-MeTHF, 50° C.) of 154 mg/mL solvent, a Solubility ([2]; 2-MeTHF/n-heptane 1/1 (v/v), organic solvent or mixture, thermodynamic from solid, 2-ME-THF/n-hep = 1/1 (v/v), 25 ° C., read-out: Solubility) of 13000 µg/mL (≈ 40.3 mM) and a Solubility ([2]; 2-MeTHF/n-heptane 1/2 (v/v), organic solvent or mixture, thermodynamic from solid, 2-ME-THF/n-hep = 1/2 (v/v), 25 ° C., read-out: Solubility) of about 4000 µg/mL (≈ 12.4 mM). For the same compound, the Solubility ([2]; 2-MeTHF/n-heptane 1/3 (v/v), organic solvent or mixture, thermodynamic from solid, 2-ME-THF/n-hep = 1/3 (v/v), 25 ° C., read-out: Solubility) was about 2000 µg/mL (≈ 6.2 mM), the Solubility ([2]; 2-MeTHF/n-heptane 4/0.5 (v/v), organic solvent or mixture, thermodynamic from solid, 2-ME-THF/n-hep = 4/0.5 (v/v), 50 ° C., read-out: Solubility) was 122000 µg/mL (≈ 378 mM) and the Solubility ([2]; 2-MeTHF/n-heptane 4/1 (v/v), organic solvent or mixture, thermodynamic from solid, 2-ME-THF/n-hep = 4/1 (v/v), 50 ° C., read-out: Solubility) was 90000 µg/mL (≈ 279 mM). It also gave a Solubility ([2]; 2-MeTHF/n-heptane 4/2 (v/v), organic solvent or mixture, thermodynamic from solid, 2-ME-THF/n-hep = 4/2 (v/v), 50 ° C., read-out: Solubility) of 49000 µg/mL (≈ 152 mM), a Solubility ([2]; 2-MeTHF/n-heptane 4/4 (v/v), organic solvent or mixture, thermodynamic from solid, 2-ME-THF/n-hep = 4/4 (v/v), 50 ° C., read-out: Solubility) of 21000 µg/mL (≈ 65.1 mM) and a Solubility ([2]; 2-MeTHF/n-heptane 4/8 (v/v), organic solvent or mixture, thermodynamic from solid, 2-ME-THF/n-hep = 4/8 (v/v), 50 ° C., read-out: Solubility) of 10000 µg/mL (≈ 31 mM). It also gave a Solubility ([2]; 2-MeTHF/n-heptane 4/12 (v/v), organic solvent or mixture, thermodynamic from solid, 2-ME-THF/n-hep = 4/12 (v/v), 50 ° C., read-out: Solubility) of 5000 µg/mL (≈ 15.5 mM), a Solubility ([2]; Acetone, 25° C.) of 66 mg/mL solvent and a Solubility ([2]; Acetone, 50° C.) of 122 mg/mL solvent. The Solubility ([2]; EA, 25° C.) was 32 mg/mL solvent, the Solubility ([2]; EA, 50° C.) was 58 mg/mL solvent and the XRPD ([2]; EA, 50° C. (cell printed at this row, probably merged downwards)) was “Form C”. It also gave a Solubility ([2]; Ethanol, 25° C.) of 27 mg/mL solvent, a Solubility ([2]; Ethanol, 50° C.) of 64 mg/mL solvent and a Solubility ([2]; Heptane, 25° C.) of about 2 mg/mL solvent. The Solubility ([2]; Heptane, 50° C.) was about 3 mg/mL solvent, the Solubility ([2]; IPA, 25° C.) was 14 mg/mL solvent and the Solubility ([2]; IPA, 50° C.) was 29 mg/mL solvent. The Solubility ([2]; MCH, 25° C.) was about 3 mg/mL solvent, the Solubility ([2]; MCH, 50° C.) was about 3 mg/mL solvent and the Solubility ([2]; MEK, 25° C.) was 63 mg/mL solvent. It also gave a Solubility ([2]; MEK, 50° C.) of 110 mg/mL solvent, a Solubility ([2]; MEK/n-heptane 1/1 (v/v), organic solvent or mixture, thermodynamic from solid, MEK/n-hep = 1/1 (v/v), 25 ° C., read-out: Solubility) of 16000 µg/mL (≈ 49.6 mM) and a Solubility ([2]; MEK/n-heptane 1/2 (v/v), organic solvent or mixture, thermodynamic from solid, MEK/n-hep = 1/2 (v/v), 25 ° C., read-out: Solubility) of 6000 µg/mL (≈ 18.6 mM). The Solubility ([2]; MEK/n-heptane 1/3 (v/v), organic solvent or mixture, thermodynamic from solid, MEK/n-hep = 1/3 (v/v), 25 ° C., read-out: Solubility) was about 3000 µg/mL (≈ 9.31 mM), the Solubility ([2]; MIBK, 25° C.) was 21 mg/mL solvent and the Solubility ([2]; MIBK, 50° C.) was 28 mg/mL solvent. For the same compound, the Solubility ([2]; THF, 25° C.) was 247 mg/mL solvent, the Solubility ([2]; THF, 50° C.) was over 200 mg/mL solvent and the Solubility ([2]; Toluene, 25° C.) was 5 mg/mL solvent. For the same compound, the Solubility ([2]; Toluene, 50° C.) was 5 mg/mL solvent, the XRPD ([2]; Water, 25° C. (cell printed at this row, probably merged downwards)) was “Form C” and the Solubility ([2]; Water, 25° C., read-out: Solubility) was about 1000 µg/mL (≈ 3.1 mM). For the same compound, the Solubility ([2]; Water, 50° C.) was about 0 mg/mL solvent, the XRPD ([2]; Water, 50° C. (cell printed at this row, probably merged downwards)) was “Form C” and the Solubility ([2]; acetone/n-heptane 1/1 (v/v), organic solvent or mixture, thermodynamic from solid, Acetone/n-hep = 1/1 (v/v), 25 ° C., read-out: Solubility) was 18000 µg/mL (≈ 55.8 mM). The Solubility ([2]; acetone/n-heptane 1/2 (v/v), organic solvent or mixture, thermodynamic from solid, Acetone/n-hep = 1/2 (v/v), 25 ° C., read-out: Solubility) was 10000 µg/mL (≈ 31 mM), the Solubility ([2]; acetone/n-heptane 1/3 (v/v), organic solvent or mixture, thermodynamic from solid, Acetone/n-hep = 1/3 (v/v), 25 ° C., read-out: Solubility) was 5000 µg/mL (≈ 15.5 mM) and the Solubility in words ([2]; in acetone, THF, 2-MeTHF, and MEK) was “high solubility”. For the same compound, the Solubility in words ([2]; in water, n-heptane, and MCH) was “poor solubility”, the XRPD ([2]; mixture solvents, 25 ° C. (printed at Acetone/MCH = 1/1, probably merged for all rows)) was “Form C” and the Solubility ([2]; n-PrOH, 25° C.) was 21 mg/mL solvent. The Solubility ([2]; n-PrOH, 50° C.) was 48 mg/mL solvent, the Solubility ([2]; organic solvent or mixture, thermodynamic from solid, 2-MeTHF/MCH = 1/1 (v/v), 25 ° C., read-out: Solubility) was 18000 µg/mL (≈ 55.8 mM) and the Solubility ([2]; organic solvent or mixture, thermodynamic from solid, 2-MeTHF/MCH = 1/2 (v/v), 25 ° C., read-out: Solubility) was 6000 µg/mL (≈ 18.6 mM). The Solubility ([2]; organic solvent or mixture, thermodynamic from solid, 2-MeTHF/MCH = 1/3 (v/v), 25 ° C., read-out: Solubility) was about 4000 µg/mL (≈ 12.4 mM), the Solubility ([2]; organic solvent or mixture, thermodynamic from solid, Acetone/MCH = 1/1 (v/v), 25 ° C., read-out: Solubility) was 30000 µg/mL (≈ 93.1 mM) and the Solubility ([2]; organic solvent or mixture, thermodynamic from solid, Acetone/MCH = 1/2 (v/v), 25 ° C., read-out: Solubility) was 15000 µg/mL (≈ 46.5 mM). For the same compound, the Solubility ([2]; organic solvent or mixture, thermodynamic from solid, MEK/MCH = 1/1 (v/v), 25 ° C., read-out: Solubility) was 20000 µg/mL (≈ 62 mM), the Solubility ([2]; organic solvent or mixture, thermodynamic from solid, MEK/MCH = 1/2 (v/v), 25 ° C., read-out: Solubility) was 9000 µg/mL (≈ 27.9 mM) and the “Stability compared to the other polymorph forms” value [3] was “most stable polymorph”. The “Form after the DVS test” value ([4]; DVS at 25° C.) was “still in Form C”, the Hygroscopicity ([4]; DVS at 25° C., below 90% relative humidity (RH)) was “non-hygroscopic” and the Water absorbed ([4]; DVS, 95% RH at 25° C.) was “about 0.2%”. The Bulk stability ([5]; 25° C./92% RH open, 40° C./75% RH open, 60° C. tight container, 1 week) was “physically and chemically stable”, the “Bulk (XRPD)” value [5, 7] was “Form C” and the Color [5, 7] was “No color change”. The “Purity, Bulk (HPLC)” value [5, 7] was 99.2%, the “Bulk (XRPD)” value [5, 8] was “Form C” and the Color [5, 8] was “No color change”. For the same compound, the “Purity, Bulk (HPLC)” value [5, 8] was 99.1%, the “Bulk (XRPD)” value [5, 9] was “Form C” and the Color [5, 9] was “No color change”. For the same compound, the “Purity, Bulk (HPLC)” value [5, 9] was 99.2%, the Initial purity ([5]; before stress) was 99.2% and the “XRPD of residual solids” value ([6]; pH 1.0 HCl solution (0.1N)) was “Form C”. The “XRPD of residual solids” value ([6]; pH 3.0 citrate buffer (50 mM)) was “Form C”, the “XRPD of residual solids” value ([6]; pH 5.0 acetate buffer (50 mM)) was “Form C” and the “XRPD of residual solids” value [6, 10] was “Form C”. For the same compound, the solubility at 2 h [6, 11] was 5.97 µg/mL (≈ 0.0185 mM), the solubility at 24 h [6, 11] was 4.08 µg/mL (≈ 0.0127 mM) and the solubility at 2 h [6, 12] was 5.44 µg/mL (≈ 0.0169 mM). For the same compound, the solubility at 24 h [6, 12] was 3.85 µg/mL (≈ 0.0119 mM), the solubility at 2 h [6, 13] was 5.43 µg/mL (≈ 0.0168 mM) and the solubility at 24 h [6, 13] was 11.6 µg/mL (≈ 0.0359 mM). For the same compound, the “24 h (pH) of supernatant” value ([6]; pH 1.0 HCl solution (0.1N)) was 1.0, the “24 h (pH) of supernatant” value ([6]; pH 3.0 citrate buffer (50 mM)) was 3.1 and the “24 h (pH) of supernatant” value ([6]; pH 5.0 acetate buffer (50 mM)) was 5.1. The “24 h (pH) of supernatant” value [6, 10] was 7.3, the solubility at 2 h [6, 14] was 17 µg/mL (≈ 0.0528 mM) and the solubility at 24 h [6, 14] was 14.6 µg/mL (≈ 0.0452 mM).
